One assay relates to THP-1 cells. The experiment in a line: MTS cell proliferation assay, THP-1. Conditions: MTS. It is filed as cell-based, human. Here is the method:
(§1) Cell viability was determined by using the MTS assay. In brief, HepG2 cells (5×10^3 cells/100 µL/well), MDA-MB-231 (5×10^3 cells/100 µL/well), THP-1 (25×10^3/100 µL/well), normal human and rat hepatocytes (1×10^4 cells/100 µL/well) were plated in triplicate, in a 96 well sterile flat bottom tissue culture plates. […] Thereby, cells were exposed to various concentrations (0.1, 1, 10, 25, 50, 75, 100 µM) of each treatment. Controls consist of cells with media containing DMSO (<0.5%), test blank wells contained the test compound in media with no cells and blank wells contained media with no cells. After additional 3, 6, 12, 18 or 24 h, 20 µL of the MTS reagent in combination with the electron coupling agent, phenazine methosulfate were added to the wells and cells were incubated in a humidified incubator for 3 h. Absorbance at 490 nm (OD490) was measured by using a Flurostar Optima microplate reader (BMG Labtech, Cary, NC, USA) to obtain the number of viable cells relative to the control population. Percentage of viability of the test compound treated cells are expressed as percentage compared to control (<0.5% DMSO). […] The selective index (SI) of the fatty acid esters of phloridzin is defined as the ratio of cytotoxicity (EC50 values) on normal HP-F cells to solid cancer HepG2, MDA-MB-231 cells (SI = EC50 on HP-F cells/EC50 on solid cancer cells). Samples with SI values greater than three were considered to have high selectivity towards cancer cells.

In assay [1] the test system is normal human hepatocytes (HP-F). The experiment in a line: MTS cell viability assay, normal human hepatocytes. The settings on record: 24 h. Format: cell-based. Here is the method:
as §1

The test system of another assay is HepG2 cells. The experiment in a line: MTS cell proliferation assay, HepG2. It is filed as cell-based, human. The settings on record: MTS. The procedure:
as §1

A further assay has as its system MDA-MB-231 cells. Nature of the assay: MTS cell proliferation assay, MDA-MB-231. The settings on record: MTS. It is filed as cell-based, human. Here is the method:
as §1
In general terms: Formazan colour is commonly taken as a measure of viable cells.

A value given as a limit tells only on which side of the number the result lay.

As a reminder, the EC50 is the midpoint of the concentration-response curve.

With `CC/C=C\C/C=C\C/C=C\C/C=C\C/C=C\C/C=C\CCC(=O)O` [DHA, decosahexaenoic acid], the concentration for a half-maximal effect (EC50) was greater than 100 µM with THP-1 cells (THP-1, 3 h); greater than 100 µM in the assay on THP-1 cells (THP-1, 6 h); greater than 100 µM in the assay on THP-1 cells (THP-1, 12 h); greater than 100 µM with THP-1 cells (THP-1, 18 h); greater than 100 µM in the assay on THP-1 cells (THP-1, 24 h); greater than 100 µM in assay [1]. Besides, the EC50 in the assay with HepG2 cells (HepG2, 3 h) was greater than 100 µM; in the assay with HepG2 cells (HepG2, 6 h), greater than 100 µM; in the assay on HepG2 cells (HepG2, 12 h), greater than 100 µM; in the assay with HepG2 cells (HepG2, 18 h) it was greater than 100 µM; with HepG2 cells (HepG2, 24 h), greater than 100 µM; in the assay with MDA-MB-231 cells (MDA-MB-231, 3 h) it was greater than 100 µM. The EC50 with MDA-MB-231 cells (MDA-MB-231, 6 h) is greater than 100 µM; in the assay with MDA-MB-231 cells (MDA-MB-231, 12 h) it was greater than 100 µM; in the assay with MDA-MB-231 cells (MDA-MB-231, 18 h), greater than 100 µM; in the assay with MDA-MB-231 cells (MDA-MB-231, 24 h), greater than 100 µM.
As to `COc1cccc2c1C(=O)c1c(O)c3c(c(O)c1C2=O)C[C@@](O)(C(C)=O)C[C@@H]3O[C@H]1C[C@H](N)[C@H](O)[C@H](C)O1` [Daunorubicin, daunorubicin], the EC50 in the assay with THP-1 cells (Homo sapiens, THP-1, 3 h) is 48.1 ± 2.8 µM; with THP-1 cells (Homo sapiens, THP-1, 6 h) it was 35.2 ± 2.9 µM; with THP-1 cells (Homo sapiens, THP-1, 12 h) it was 12.6 ± 0.8 µM; in the assay on THP-1 cells (Homo sapiens, THP-1, 18 h) it was 1.4 ± 0.2 µM; in the assay on THP-1 cells (Homo sapiens, THP-1, 24 h), 0.02 ± 0.01 µM.
For the compound `COc1cccc2c1C(=O)c1c(O)c3c(c(O)c1C2=O)C[C@@](O)(C(=O)CO)C[C@@H]3O[C@H]1C[C@H](N)[C@H](O)[C@H](C)O1` [Doxorubicin, doxorubicin], the EC50 with MDA-MB-231 cells (Homo sapiens, MDA-MB-231, 3 h) was greater than 100 µM; in the assay on MDA-MB-231 cells (Homo sapiens, MDA-MB-231, 6 h), greater than 100 µM; in the assay on MDA-MB-231 cells (Homo sapiens, MDA-MB-231, 12 h), 9.6 ± 0.2 µM; in the assay with MDA-MB-231 cells (Homo sapiens, MDA-MB-231, 18 h), 5.9 ± 0.3 µM; with MDA-MB-231 cells (Homo sapiens, MDA-MB-231, 24 h), 4.1 ± 0.1 µM.
Take `CC/C=C\C/C=C\C/C=C\C/C=C\C/C=C\CCCC(=O)O` [EPA, eicosapentaenoic acid]: the EC50 in the assay on THP-1 cells (Homo sapiens, THP-1, 3 h) was greater than 100 µM; with THP-1 cells (Homo sapiens, THP-1, 6 h), greater than 100 µM; with THP-1 cells (Homo sapiens, THP-1, 12 h), greater than 100 µM; in the assay with THP-1 cells (Homo sapiens, THP-1, 18 h), greater than 100 µM; with THP-1 cells (Homo sapiens, THP-1, 24 h), greater than 100 µM; in assay [1] (Hepatocyte) it was greater than 100 µM. For the same compound, the EC50 with HepG2 cells (Homo sapiens, HepG2, 3 h) was greater than 100 µM; in the assay on HepG2 cells (Homo sapiens, HepG2, 6 h) it was greater than 100 µM; with HepG2 cells (Homo sapiens, HepG2, 12 h) it was greater than 100 µM; in the assay with HepG2 cells (Homo sapiens, HepG2, 18 h), greater than 100 µM; in the assay with HepG2 cells (Homo sapiens, HepG2, 24 h), greater than 100 µM; in the assay with MDA-MB-231 cells (Homo sapiens, MDA-MB-231, 3 h), greater than 100 µM. Also, the EC50 in the assay with MDA-MB-231 cells (Homo sapiens, MDA-MB-231, 6 h) was greater than 100 µM; in the assay on MDA-MB-231 cells (Homo sapiens, MDA-MB-231, 12 h), greater than 100 µM; with MDA-MB-231 cells (Homo sapiens, MDA-MB-231, 18 h), greater than 100 µM; with MDA-MB-231 cells (Homo sapiens, MDA-MB-231, 24 h), greater than 100 µM.
As to `CCCCC/C=C\C/C=C\CCCCCCCC(=O)O` [Linoleic acid, linoleic acid], the EC50 with THP-1 cells (Homo sapiens, THP-1, 3 h) was greater than 100 µM; in the assay with THP-1 cells (Homo sapiens, THP-1, 6 h) it was greater than 100 µM; in the assay with THP-1 cells (Homo sapiens, THP-1, 12 h), greater than 100 µM; with THP-1 cells (Homo sapiens, THP-1, 18 h), greater than 100 µM; with THP-1 cells (Homo sapiens, THP-1, 24 h), greater than 100 µM; in assay [1] (Hepatocyte) it was greater than 100 µM. For the same compound, the EC50 with HepG2 cells (Homo sapiens, HepG2, 3 h) is greater than 100 µM; in the assay with HepG2 cells (Homo sapiens, HepG2, 6 h), greater than 100 µM; in the assay on HepG2 cells (Homo sapiens, HepG2, 12 h), greater than 100 µM; with HepG2 cells (Homo sapiens, HepG2, 18 h), greater than 100 µM; in the assay on HepG2 cells (Homo sapiens, HepG2, 24 h), greater than 100 µM; with MDA-MB-231 cells (Homo sapiens, MDA-MB-231, 3 h), greater than 100 µM. Further, the EC50 with MDA-MB-231 cells (Homo sapiens, MDA-MB-231, 6 h) was greater than 100 µM; with MDA-MB-231 cells (Homo sapiens, MDA-MB-231, 12 h), greater than 100 µM; in the assay on MDA-MB-231 cells (Homo sapiens, MDA-MB-231, 18 h) it was greater than 100 µM; with MDA-MB-231 cells (Homo sapiens, MDA-MB-231, 24 h), greater than 100 µM.
`CCCCCCCC/C=C\CCCCCCCC(=O)O` [Oleic acid, oleic acid]: the EC50 in the assay on THP-1 cells (Homo sapiens, THP-1, 3 h) is greater than 100 µM; in the assay on THP-1 cells (Homo sapiens, THP-1, 6 h), greater than 100 µM; with THP-1 cells (Homo sapiens, THP-1, 12 h), greater than 100 µM; in the assay with THP-1 cells (Homo sapiens, THP-1, 18 h) it was greater than 100 µM; in the assay on THP-1 cells (Homo sapiens, THP-1, 24 h), greater than 100 µM; in assay [1] (Hepatocyte), greater than 100 µM. In addition, the EC50 in the assay on HepG2 cells (Homo sapiens, HepG2, 3 h) was greater than 100 µM; with HepG2 cells (Homo sapiens, HepG2, 6 h), greater than 100 µM; in the assay with HepG2 cells (Homo sapiens, HepG2, 12 h), greater than 100 µM; in the assay with HepG2 cells (Homo sapiens, HepG2, 18 h) it was greater than 100 µM; in the assay with HepG2 cells (Homo sapiens, HepG2, 24 h), greater than 100 µM; with MDA-MB-231 cells (Homo sapiens, MDA-MB-231, 3 h) it was greater than 100 µM. Moreover, the EC50 in the assay with MDA-MB-231 cells (Homo sapiens, MDA-MB-231, 6 h) is greater than 100 µM; in the assay with MDA-MB-231 cells (Homo sapiens, MDA-MB-231, 12 h), greater than 100 µM; in the assay with MDA-MB-231 cells (Homo sapiens, MDA-MB-231, 18 h) it was greater than 100 µM; in the assay on MDA-MB-231 cells (Homo sapiens, MDA-MB-231, 24 h), greater than 100 µM.
In the case of `CCCCCCCCCCCCCCCCCC(=O)O` [Stearic acid, stearic acid], the concentration for a half-maximal effect (EC50) in the assay with THP-1 cells (Homo sapiens, THP-1, 3 h) was greater than 100 µM; in the assay on THP-1 cells (Homo sapiens, THP-1, 6 h) it was greater than 100 µM; in the assay with THP-1 cells (Homo sapiens, THP-1, 12 h), greater than 100 µM; with THP-1 cells (Homo sapiens, THP-1, 18 h), greater than 100 µM; with THP-1 cells (Homo sapiens, THP-1, 24 h), greater than 100 µM; in assay [1] (Hepatocyte) it was greater than 100 µM. The EC50 with HepG2 cells (Homo sapiens, HepG2, 3 h) is greater than 100 µM; in the assay with HepG2 cells (Homo sapiens, HepG2, 6 h), greater than 100 µM; with HepG2 cells (Homo sapiens, HepG2, 12 h), greater than 100 µM; in the assay on HepG2 cells (Homo sapiens, HepG2, 18 h), greater than 100 µM; in the assay with HepG2 cells (Homo sapiens, HepG2, 24 h), greater than 100 µM; in the assay on MDA-MB-231 cells (Homo sapiens, MDA-MB-231, 3 h) it was greater than 100 µM. The EC50 with MDA-MB-231 cells (Homo sapiens, MDA-MB-231, 6 h) was greater than 100 µM; in the assay on MDA-MB-231 cells (Homo sapiens, MDA-MB-231, 12 h), greater than 100 µM; with MDA-MB-231 cells (Homo sapiens, MDA-MB-231, 18 h), greater than 100 µM; in the assay with MDA-MB-231 cells (Homo sapiens, MDA-MB-231, 24 h), greater than 100 µM.
`CC/C=C\C/C=C\C/C=C\CCCCCCCC(=O)O` [α-Linolenic acid, α-linolenic acid]: the concentration giving a half-maximal response (EC50) in the assay with THP-1 cells (THP-1, 3 h) is greater than 100 µM; in the assay on THP-1 cells (THP-1, 6 h), greater than 100 µM; in the assay with THP-1 cells (THP-1, 12 h), greater than 100 µM; in the assay with THP-1 cells (THP-1, 18 h) it was greater than 100 µM; with THP-1 cells (THP-1, 24 h), greater than 100 µM; in assay [1], greater than 100 µM. For the same compound, the EC50 was greater than 100 µM in the assay on HepG2 cells (HepG2, 3 h); greater than 100 µM in the assay with HepG2 cells (HepG2, 6 h); greater than 100 µM in the assay on HepG2 cells (HepG2, 12 h); greater than 100 µM in the assay with HepG2 cells (HepG2, 18 h); greater than 100 µM in the assay on HepG2 cells (HepG2, 24 h); greater than 100 µM with MDA-MB-231 cells (MDA-MB-231, 3 h). The 50% effective concentration (EC50) in the assay on MDA-MB-231 cells (MDA-MB-231, 6 h) was greater than 100 µM; in the assay with MDA-MB-231 cells (MDA-MB-231, 12 h), greater than 100 µM; with MDA-MB-231 cells (MDA-MB-231, 18 h), greater than 100 µM; in the assay with MDA-MB-231 cells (MDA-MB-231, 24 h) it was greater than 100 µM.

The values are drawn from article PMC4167698, “Fatty Acid Esters of Phloridzin Induce Apoptosis of Human Liver Cancer Cells through Altered Gene Expression” (PLoS ONE, 2014).
